Measurements reported in US10653688B2, “6-(6-membered heteroaryl and aryl)isoquinolin-3-yl carboxamides and preparation and use thereof” (Samumed, LLC, priority 2017, dated 2020).
pEC50: −log10 of the molar value. Like-named read-outs stand apart in the source and are kept apart here.

Legend:
[1] = system: IL-6 in human peripheral blood mononuclear cells (huPBMCs); experiment: IL-6 inhibition in LPS-stimulated human peripheral blood mononuclear cells (HTRF); format: cell-based; details: Homo sapiens, PBMC; for pEC50: LPS 50 ng/mL, 22 hours, IL-6 HTRF; for inhibition at 10 µM: read-out: percent inhibition at 10 μM (given for EC50 >10 μM), LPS, IL-6, 10 μM
In short: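 Compound-treated huPBMCs (1×10e6 cells/mL, 1% FBS-RPMI) were stimulated after 2 h with LPS (50 ng/mL) for another 22 h at 37° C. An anti-IL-6 HTRF pair reported IL-6 as the 665/620 nm ratio; activity relative to DMSO, EC50 by 4-parameter Levenberg-Marquardt fitting, duplicates.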

[2] = system: Tau phosphorylation at Ser396 (pSer396) in SH-SY5Y cells; experiment: Tau phosphorylation at Ser396 (pSer396) cell assay, ELISA/western blot; format: cell-based, human
Protocol: SH-SY5Y cells (human neuroblastoma) were cultured in DMEM/F-12 medium supplemented with 15% FBS, Non-essential Amino Acid and Penicillin/Streptomycin. Two days before treatment, cells were seeded onto 96 well plates at 5×10^4 cells/well.
The above synthesized compounds were screened using the cell assay procedure to assess decrease Tau phosphorylation at Ser396 (pSer396) described below.
DMSO-resuspended compounds were dispensed to 8 wells as a serial titration from 10 μM to 4.6 nM final in medium and cells were exposed overnight (16-18 h) in a humidified incubator at 36.6c before harvest.
Cells were lysed with RIPA buffer complemented with phosphatase and protease inhibitors then lysates were spun down at 12,000 g for 10 min to remove any cellular debris. Lysates are then either directly tested for pSer396 by ELISA (Life Technology, Kit KHB7031) or loaded on NuPage Bis-Tris gels for western blot analysis. Colorimetric detection of ELISA signal is performed by Cytation3 plate reader (Biotek) and the chemiluminescence signal for HRP-linked antibodies used in western blotting is detected using a Carestream Image Station. The same pSer396 antibody is used for detection of pTau in both assays.
Blot densitometry for pSer396 and β-actin were analyzed using ImageJ (NIH) and pSer396 Tau ELISA signal was used to plot, draw the curve fitting, and determine each compounds EC50 in Prism (GraphPad).

[3] = system: SW480 colon carcinoma cells; experiment: Cell viability assay (CellTiter-Glo); format: cell-based, human; details: Homo sapiens; for pEC50: 96 h, four days, CellTiter-Glo; for inhibition at 10 µM: read-out: percent inhibition at 10 μM (given for EC50 >10 μM), 10 μM
[4] = system: Wnt activity (SW480 colon carcinoma cells stably expressing the Sp5-Luc reporter gene); experiment: Wnt activity screening assay (Sp5-Luc reporter gene assay); format: cell-based, human; details: Homo sapiens; for pEC50: 36 to 48 hours; for inhibition at 10 µM: read-out: percent inhibition at 10 μM (given for EC50 >10 μM), 10 μM
In short: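 EC50 values come from a variable-slope four-parameter fit of luminescence normalized to DMSO-only wells. The read-out follows 36–48 h incubation at 37 °C, 5% CO2, in DMEM containing 1% fetal bovine serum. Cells are hygromycin-selected SW480 stably expressing firefly luciferase under a Wnt-responsive Sp5 promoter (eight TCF/LEF sites).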

[5] = biological target: recombinant DYRK1A kinase (Homo sapiens (Human), UniProt Q13627); experiment: DYRK1A kinase assay (Ser/Thr 18 peptide Z-lyte, FRET)
[6] = biological target: recombinant GSK3β kinase (Homo sapiens (Human), UniProt P49841); experiment: GSK3β kinase assay (Ser/Thr 09 peptide Z-lyte, FRET); format: biochemical;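 also: FRET read-out as coumarin over fluorescein emission ratio, compounds incubated one hour at room temperature, IC50 from dose-response curve fit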
Chain of recombinant GSK3β kinase (P49841 whole entry): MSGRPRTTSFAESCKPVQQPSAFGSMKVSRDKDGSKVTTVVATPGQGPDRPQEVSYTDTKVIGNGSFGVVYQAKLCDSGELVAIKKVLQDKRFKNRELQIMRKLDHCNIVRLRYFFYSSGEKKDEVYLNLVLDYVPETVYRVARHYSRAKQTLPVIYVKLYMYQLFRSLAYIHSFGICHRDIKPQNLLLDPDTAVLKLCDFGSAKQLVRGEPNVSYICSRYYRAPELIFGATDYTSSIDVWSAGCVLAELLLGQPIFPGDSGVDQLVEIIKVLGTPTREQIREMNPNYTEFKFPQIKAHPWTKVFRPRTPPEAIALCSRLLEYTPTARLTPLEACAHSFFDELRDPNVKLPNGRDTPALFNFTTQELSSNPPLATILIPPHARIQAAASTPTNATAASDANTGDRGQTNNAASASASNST

[7] = system: LL29 cells (primary human fibroblasts derived from IPF patients), α-smooth muscle actin; experiment: Inhibition of fibrotic process: TGF-β1-treated primary human fibroblasts, αSMA staining; format: cell-based; details: Homo sapiens, Fibroblast; for pEC50: 96 h, TGF-β1 20 ng/mL, 4 days, % cells positive for αSMA; for inhibition at 10 µM: read-out: percent inhibition at 10 μM (given for EC50 >10 μM), TGF-β1, αSMA, 10 μM;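 as to all read-outs here: controls were TGF-β1-stimulated wells with DMSO vehicle as the positive reference and cells given DMSO alone as the negative reference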
Protocol: Representative compounds were screened using primary human fibroblasts (derived from IPF patients) treated with TGF-β1 to determine their ability to inhibit the fibrotic process.
Human Fibroblast Cell Culture:
Each compound was dissolved in DMSO as a 10 mM stock and used to prepare compound source plates. […] LL29 cells were plated at 1,500 cells/well in 70 μL/well F12 medium supplemented with 1% Fetal Bovine Serum. […] Wells treated with TGF-β1 and containing DMSO were used as positive control, and cells with only DMSO were negative control. Cells were incubated at 37° C. and 5% CO2 for 4 days. Following incubation for 4 days, SYTOX green nucleic acid stain (Life Technologies [Thermo Fisher Scientific]) was added to the wells at a final concentration of 1 μM and incubated at room temperature for 30 min. Cells were then fixed using 4% formaldehyde (Electron Microscopy Sciences), washed 3 times with PBS followed by blocking and permeabilization using 3% Bovine Serum Albumin (BSA; Sigma) and 0.3% Triton X-100 (Sigma) in PBS.

[8] = system: secreted cytokines TNFα, IL-6 and KC-GRO in BV-2 cells (mouse microglial cells); experiment: Secreted cytokines in lipopolysaccharide-stimulated mouse glial cell line; format: cell-based; details: LPS 250 ng/mL 5 hours, table does not say which cytokine
Protocol: Representative compounds were screened using the cell-based assay procedure for secreted cytokines in a Lipopolysaccharide-stimulated mouse glial cell line described below.
BV-2 cells (mouse microglial cells) were cultured in 1:1 DMEM medium supplemented with 10% FBS, and 1% penicillin/streptomycin.
BV-2 cells are plated at 35,000 cells/well in a volume of 100 μl for at least 4 hours before compounds are added. DMSO-resuspended compounds were first dispensed in a 96-well plate and serial diluted from 10 μM to 4.6 nM final concentration in medium. Compounds were added to cells overnight. 250 ng/mL of lipopolysaccharide (Escherichia coli O111:B4, SIGMA) was added for 5 hours. Supernatant is removed and saved for further cytokine detection. The original plates with seeded cells were tested for cytotoxicity by measure of adenosine triphosphate (ATP) release by adding CellTiter-Glo® diluted 1:4 in distilled water (G7573, Promega) and transferring lysed cells to a completely black 96-well plate to be read with the Cytation3. Supernatant was then diluted 1:2 with a diluent from V-PLEX cytokine Kit and directly tested for the secreted cytokines TNFα, IL-6 and KC-GRO using electrochemiluminescence (Meso Scale Discovery). The standard curve for each cytokine was used to convert the electrochemiluminescent signal into pg of protein per mL. The signal was used to plot, draw the curve fitting, and determine each compounds EC50 in Prism (GraphPad).

[9] = system: pT212Tau in Dyrk1a- and MAPT-overexpressing HEK293T cells; experiment: Tau phosphorylation at Threonine 212 (pT212Tau) sandwich ELISA in double transfected cells; details: Homo sapiens, HEK-293T, read-out: Thr212 EC50 (μM)
Protocol: HEK293T cells (transfectable human embryonic kidney cells) were cultured in DMEM medium supplemented with 10% FBS and 1% penicillin/streptomycin.
HEK293T cells were transiently transfected to overexpress Dyrk1a and microtubule-associated protein Tau (MAPT) genes. Specifically, Dyrk1a and MAPT expression vectors were obtained from OriGene (10 μg of each, catalog numbers SC314641 and RC216166, respectively). […] HEK293T cells were seeded at 1.0×10^7 cells in 10 mL per T-75 flask. […] One T-75 flask was designated as a no-vector negative control for pT212Tau signal.
After 4-6 hours of incubation in transfection reagents, transiently double transfected HEK293T cells were dissociated by treatment with trypsin EDTA and seeded at 1.0×10^5 cells in 100 μL per well in 96-well plates. No-vector negative controls were seeded in separate 96-well plates to avoid the risk of the negative control cells picking up the overexpression during incubation.
96-well flat-bottom plates were coated with 100 μL per well anti-HT7 capture antibody (ThermoFisher, MN1000) diluted 1:300 in 1×PBS at 4° C. overnight, with shaking at 500 rpm.
Cells were then lysed with 100 μL 1×RIPA buffer supplemented with phosphatase and protease inhibitors (each diluted to a final 1×). […] V-bottom plates were centrifuged at 4000 rpm, 4° C., for 15 minutes, and 100 μL of lysate supernatant from each well was directly tested for pT212Tau signal by sandwich ELISA.

[10] = Homo sapiens, SH-SY5Y cells, overnight (16-18 h), read-out: pSer396 Tau EC50
[11] = DYRK1A kinase, head says EC50, method says IC50, ATP 30 μM
[12] = GSK3β kinase, head says EC50, method says IC50, ATP 46 μM

Row | SMILES | pEC50 [1] | inhibition at 10 µM [1] [%] | pEC50 [2, 10] | pEC50 [3] | inhibition at 10 µM [3] [%] | pEC50 [4] | inhibition at 10 µM [4] [%] | pEC50 [5, 11] | pEC50 [6, 12] | pEC50 [7] | pEC50 [8] | EC50 [9] [µM] | pEC50 [5] | pEC50 [6] | inhibition at 10 µM [7] [%] | pEC50 ([2]; Homo sapiens, SH-SY5Y, read-out: EC50 in the Tau assay) | pEC50 ([2]; control DYRK1A inhibitors, printed '>10 M' (μ apparently lost), read-out: EC50 in the Tau assay)
1 | CN1CCC(C(=O)Nc2cc3cc(-c4ccccn4)ccc3cn2)CC1 [Compound 3, 1-Methyl-N-(6-(pyridin-2-yl)isoquinolin-3-yl)piperidine-4-carboxamide] | < 5.00 | 5.1 | < 5.00 | < 5.00 | 50 | < 5.00 | 13.7 | 6.59 | 5.27 | 5.22 |  |  |  |  |  |  | 
2 | CN1CCC(c2cccc(C(=O)Nc3cc4cc(-c5cncc(C(F)F)c5)ccc4cn3)c2)CC1 [Compound 27, N-(6-(5-(Difluoromethyl)pyridin-3-yl)isoquinolin-3-yl)-3-(1-methylpiperidin-4-yl)benzamide] | 5.04 |  |  | 5.71 |  | 5.95 |  | 7.54 | < 5.00 | 6.01 | 6.07 | 6.8 |  |  |  |  | 
3 | CN1CCN(c2cc(C(=O)Nc3cc4cc(-c5cncc(C(F)F)c5)ccc4cn3)ccn2)CC1 [Compound 28, N-(6-(5-(Difluoromethyl)pyridin-3-yl)isoquinolin-3-yl)-2-(4-methylpiperazin-1-yl)isonicotinamide] | 5.13 |  |  | 5.38 |  | 5.33 |  | 7.96 | < 5.00 | 5.82 | 6.53 | 1.6 |  |  |  |  | 
4 | CN1CCN(CC(=O)Nc2cc3cc(-c4cncc(C(F)(F)F)c4)ccc3cn2)CC1 [Compound 29, 2-(4-Methylpiperazin-1-yl)-N-(6-(5-(trifluoromethyl)pyridin-3-yl)isoquinolin-3-yl)acetamide] | < 5.00 | 4.3 | < 5.00 | 5.40 |  | 5.01 |  | 6.22 | < 5.00 | 5.40 |  |  |  |  |  |  | 
5 | CN1CCC(C(=O)Nc2cc3cc(-c4cncc(CO)c4)ccc3cn2)CC1 [Compound 31, N-(6-(5-(Hydroxymethyl)pyridin-3-yl)isoquinolin-3-yl)-1-methylpiperidine-4-carboxamide] | 5.05 |  | 5.04 | 6.07 |  | 6.06 |  |  |  | 6.35 |  |  | 8.52 | 6.16 |  |  | 
6 | CC(=O)Nc1cncc(-c2ccc3cnc(NC(=O)C4CCN(C)CC4)cc3c2)c1 [Compound 47, N-(6-(5-Acetamidopyridin-3-yl)isoquinolin-3-yl)-1-methylpiperidine-4-carboxamide] | 5.22 |  | < 5.00 | 5.16 |  | 5.90 |  | 8.70 | 6.31 | 6.25 |  |  |  |  |  |  | 
7 | O=C(Nc1cc2cc(-c3cncc(OC4CCNCC4)c3)ccc2cn1)C1CC1 [Compound 55, N-(6-(5-(Piperidin-4-yloxy)pyridin-3-yl)isoquinolin-3-yl) cyclopropanecarboxamide] | 5.49 |  | 5.96 | 5.93 |  | 6.16 |  | 8.30 | 5.99 | 5.69 |  |  |  |  |  |  | 
8 | CNC(=O)c1cncc(-c2ccc3cnc(NC(=O)C4CCN(C)CC4)cc3c2)c1 [Compound 58, N-Methyl-5-(3-(1-methylpiperidine-4-carboxamido)isoquinolin-6-yl) nicotinamide] | 5.01 |  | < 5.00 | < 5.00 | 30.9 | < 5.00 | 43.7 | 8.05 | 5.71 | < 5.00 |  |  |  |  | 44.6 |  | 
9 | Cc1ncc(-c2ccc3cnc(NC(=O)C4CCN(C)CC4)cc3c2)cn1 [Compound 63, 1-Methyl-N-(6-(2-methylpyrimidin-5-yl)isoquinolin-3-yl)piperidine-4-carboxamide] | < 5.00 | 7.9 | < 5.00 | < 5.00 | 7.4 | < 5.00 | 9.9 | 6.66 | < 5.00 | 5.62 |  |  |  |  |  |  | 
10 | O=C(CN1CCOCC1)Nc1cc2cc(-c3cccnn3)ccc2cn1 [Compound 66, 2-morpholino-N-(6-(pyridazin-3-yl)isoquinolin-3-yl)acetamide] | < 5.00 | 8.1 |  | < 5.00 | 17.5 | < 5.00 | 8.2 |  |  | < 5.00 | 5.53 | 0.791 | 6.91 | 6.07 | 10.6 |  | 
11 | O=C(CN1CCCC1)Nc1cc2cc(-c3cnccn3)ccc2cn1 [Compound 74, N-(6-(Pyrazin-2-yl)isoquinolin-3-yl)-2-(pyrrolidin-1-yl)acetamide] | < 5.00 | 4.9 |  | < 5.00 | 125 | < 5.00 | 17.5 | 7.03 | 5.77 | < 5.00 | 5.84 | 2.1 |  |  | 18.7 |  | 
12 | O=C(CN1CCOCC1)Nc1cc2cc(-c3cnccn3)ccc2cn1 [Compound 79, 2-Morpholino-N-(6-(pyrazin-2-yl)isoquinolin-3-yl)acetamide] | < 5.00 | 3.9 |  | < 5.00 | 24.8 | < 5.00 | 7.9 | 7.10 | 5.88 | < 5.00 | 5.77 | 0.959 |  |  | 17.2 |  | 
13 | CC(C)(O)CN1CCCC(C(=O)Nc2cc3cc(-c4cnccn4)ccc3cn2)CC1 (stereo not shown) [Compound 82, 1-(2-Hydroxy-2-methylpropyl)-N-(6-(pyrazin-2-yl)isoquinolin-3-yl)azepane-4-carboxamide] | < 5.00 | 9.9 |  | < 5.00 | 20 | < 5.00 | 3.4 |  |  | 5.50 | 6.14 | 0.192 | 7.57 | 5.81 |  |  | 
14 | COc1ccc2c(c1)[nH]c1c(C)nccc12 [Harmine, reference compound] |  |  |  |  |  |  |  |  |  |  |  |  |  |  |  | < 5.00 | 
15 | CCN1/C(=C/C(C)=O)Sc2ccc(O)cc21 [Indy, reference compound] |  |  |  |  |  |  |  |  |  |  |  |  |  |  |  |  | < 5.00
